Counter-ions that a name gives are not always drawn. Bounds are passed on as bounds.

For assay [1], the system named is TAZ nuclear translocation in SW1990 cells. Nature of the assay: TAZ Nuclear Translocation Assay. The format is cell-based. The following applies: Homo sapiens, 4 hours. The method, boiled down: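 SW1990 cells in RPMI1640/10% FBS treated with compounds for 4 h at 37 °C, then fixed and immunostained for TAZ with Hoechst nuclear counterstain and imaged by high-content imaging. Read-out is the nuclear/cytoplasmic-ring fluorescence ratio, normalized to DMSO (0%) and an inhibitor control (100%); EC50 from four-parameter fit.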

Assay [2] concerns the target Human LATS2 catalytic domain (Homo sapiens (Human), UniProt Q9NRM7). In words: LATS2 High ATP HTRF Assay. The format is biochemical. The note with it: no asterisk: LATS2 High ATP HTRF Assay, 5000 μM ATP, 0.05 nM LATS2. The essentials:
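Phosphorylation of 0.5 μM STK S1 peptide at high ATP (5000 μM), 2 h at room temperature, by 0.05 nM LATS2 kinase domain/Mob1b complex after 10 min compound pre-incubation. Ki derived from HTRF-based IC50 (4-parameter logistic) by Cheng-Prusoff, ATP Km 105 μM.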
A general note: Time-resolved FRET reads energy transfer from a long-lived donor to a nearby acceptor.

Assay [3] deals with pYAP(Ser127) in SW1990 cells. In words: pYAP(Ser127) HTRF Cellular Assay. Type of assay: cell-based. The following applies: Homo sapiens, 4 hours. The method, then:
The SW1990 cells were seeded at 8000 cells/well by adding 30 μL/well of cells in RPMI1640, 10% FBS, 2 mM glutamine culture media to a 384-well plate (Corning 3570). The cells were incubated overnight at 37° C. Next day, compounds were directly added to the cells using the Echo Liquid Handler (Labcyte), incubate at 37° C. for 4 hours.
The HTRF assay was performed using the Cisbio phospho-YAP Ser127 HTRF kit (64YAPPEG). The media was aspirated from the cells. 20 μL of 1X lysis/blocking buffer was added to the cells, gently shake for 30 minutes at room temperature. 1 μL of the premixed antibody solution (1:40 dilution of each phospho-YAP Eu Cryptate antibody and phospho-YAP d2 antibody) was added to the cells. The plate was sealed and incubated overnight at room temperature. The HTRF (665 nm/620 nm) signal was read on the PHERAstar reader (BMG Labtech). The EC50 values were calculated by fitting the % inhibition with a nonlinear four-parameter logistical equation.

Sequence of Human LATS2 catalytic domain (Q9NRM7 553-1088): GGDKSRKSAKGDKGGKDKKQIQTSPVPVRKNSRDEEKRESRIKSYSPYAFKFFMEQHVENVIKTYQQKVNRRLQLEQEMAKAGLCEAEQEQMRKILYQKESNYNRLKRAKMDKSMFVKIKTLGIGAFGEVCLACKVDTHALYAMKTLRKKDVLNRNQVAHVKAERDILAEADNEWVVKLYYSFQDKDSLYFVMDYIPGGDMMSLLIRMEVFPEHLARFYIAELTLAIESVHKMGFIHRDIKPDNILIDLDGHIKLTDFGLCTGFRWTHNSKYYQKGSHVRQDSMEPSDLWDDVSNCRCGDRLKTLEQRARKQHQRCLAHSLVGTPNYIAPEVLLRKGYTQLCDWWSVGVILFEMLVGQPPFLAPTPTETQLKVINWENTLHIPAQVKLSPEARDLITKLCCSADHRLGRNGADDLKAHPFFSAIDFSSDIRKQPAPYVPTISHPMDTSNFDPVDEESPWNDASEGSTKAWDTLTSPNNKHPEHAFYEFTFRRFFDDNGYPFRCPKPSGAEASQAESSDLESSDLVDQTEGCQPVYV
Sequence of Human LATS2 catalytic domain (Q7L9L4 whole entry partner, the tested form may be a part): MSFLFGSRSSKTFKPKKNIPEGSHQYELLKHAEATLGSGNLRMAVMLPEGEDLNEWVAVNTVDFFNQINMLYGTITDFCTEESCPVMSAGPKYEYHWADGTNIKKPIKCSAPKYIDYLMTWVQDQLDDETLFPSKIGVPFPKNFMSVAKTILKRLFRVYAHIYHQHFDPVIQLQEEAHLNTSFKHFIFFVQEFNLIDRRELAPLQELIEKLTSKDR

The term EC50 denotes the concentration that produces a half-maximal response. Lower therefore signals greater potency. One may read the Ki as a dissociation constant, usually derived from enzyme kinetics or from competition with a known ligand. Low values mean a stronger hold on the target, high ones a looser hold on the target. On to `c1cc(-c2nc(N3CCC4(CC3)CCN([C@@H]3CCOC3)C4)c3ccncc3n2)ccn1` (single isomer, unassigned) [Compound 112], for which the EC50 in assay [1] came out at 700 nM; in assay [3], 940 nM. The compound further gave a Ki in assay [2] of 1.07 nM.

Regarding `c1cc(-c2nc(N3CCC4(CC3)CCN([C@H]3CCOC3)C4)c3ccncc3n2)ccn1` (single isomer, unassigned) [Compound 113], the EC50 in assay [1] turned out to be 660 nM; in assay [3], 1100 nM. In assay [2], this compound came in with an inhibition constant Ki of 0.82 nM.

For the compound `OC[C@@H]1CC2(CCN(c3nc(-c4ccncc4)nc4cnccc34)CC2)CN1` (single isomer, unassigned) [Compound 197], the EC50 came out at 1300 nM in assay [1] and 1400 nM in assay [3]. The compound also registered a Ki in assay [2] of 0.059 nM.

Consider `OC[C@H]1CC2(CCN(c3nc(-c4ccncc4)nc4cnccc34)CC2)CN1` (single isomer, unassigned) [Compound 198], for which the EC50 came to 1400 nM in assay [1] and 2400 nM in assay [3]. The compound further showed an inhibition constant Ki in assay [2] of 0.041 nM.

As to `FC(F)(F)CN1CCC2(CCN(c3nc(-c4ccncc4)nc4cnccc34)CC2)C1` [Compound 105, 2-(pyridin-4-yl)-4-(2-(2,2,2-trifluoroethyl)-2,8-diazaspiro[4.5]decan-8-yl)pyrido[3,4-d]pyrimidine], the EC50 in assay [1] turned out to be 2300 nM; in assay [3], 5800 nM. In addition, the affinity in assay [2] corresponds to a Ki of 3.08 nM.

Regarding `c1cc(-c2nc(N3CCC4(CC3)CCN(C3CCCC3)C4)c3ccncc3n2)ccn1` [Compound 106, 4-(2-cyclopentyl-2,8-diazaspiro[4.5]decan-8-yl)-2-(pyridin-4-yl)pyrido[3,4-d]pyrimidine formate], the EC50 stood at 300 nM in assay [1] and 230 nM in assay [3]. In assay [2], this compound displayed a Ki of 0.053 nM.

Regarding `CC(C)(CO)N1CCC2(CCN(c3nc(-c4ccncc4)nc4cnccc34)CC2)C1` [Compound 107, 2-methyl-2-(8-(2-(pyridin-4-yl)pyrido[3,4-d]pyrimidin-4-yl)-2,8-diazaspiro[4.5]decan-2-yl)propan-1-ol], the EC50 in assay [1] was 420 nM; in assay [3], 290 nM. In addition, the affinity in assay [2] corresponds to a Ki of 0.62 nM.

In the case of `OC1CC(N2CCC3(CCN(c4nc(-c5ccncc5)nc5cnccc45)CC3)C2)C1` (stereo not shown) [Compound 108, 3-(8-(2-(pyridin-4-yl)pyrido[3,4-d]pyrimidin-4-yl)-2,8-diazaspiro[4.5]decan-2-yl)cyclobutanol], the results for the EC50 in assay [1] and in assay [3] were 380 nM and 580 nM, respectively. For the same compound, the Ki in assay [2] is 0.31 nM.

On to `OCCN1CCC2(CCN(c3nc(-c4ccncc4)nc4cnccc34)CC2)C1` [Compound 114, 2-(8-(2-(pyridin-4-yl)pyrido[3,4-d]pyrimidin-4-yl)-2,8-diazaspiro[4.5]decan-2-yl)ethanol], for which the concentration for a half-maximal effect (EC50) in assay [1] amounted to 610 nM; in assay [3], 550 nM. Further, the affinity in assay [2] corresponds to a Ki of 0.31 nM.

As for `OCCCN1CCC2(CCN(c3nc(-c4ccncc4)nc4cnccc34)CC2)C1` [Compound 120, 3-(8-(2-(pyridin-4-yl)pyrido[3,4-d]pyrimidin-4-yl)-2,8-diazaspiro[4.5]decan-2-yl)propan-1-ol], the EC50 in assay [1] amounted to 370 nM; in assay [3], 360 nM. For the same compound, the Ki in assay [2] was found to be 0.17 nM.

In assay [1], `CNc1cc2c(N3CCC4(CCN(C)C4)CC3)nc(-c3ccncc3)nc2cn1` [Example 214, N-methyl-4-(2-methyl-2,8-diazaspiro[4.5]decan-8-yl)-2-(pyridin-4-yl)pyrido[3,4-d]pyrimidin-6-amine] came in with an EC50 of 850 nM. For the same compound, the Ki in assay [2] was 10 nM.

Regarding `CN(C)S(=O)(=O)CCN1CCC2(CCN(c3nc(-c4ccncc4)nc4cnccc34)CC2)C1` [Example 215, N,N-dimethyl-2-(8-(2-(pyridin-4-yl)pyrido[3,4-d]pyrimidin-4-yl)-2,8-diazaspiro[4.5]decan-2-yl)ethanesulfonamide], the 50% effective concentration (EC50) in assay [1] turned out to be 1500 nM. This compound registered an inhibitory constant (Ki) in assay [2] of 1.2 nM.

`Cc1n[nH]cc1-c1nc(N2CCC3(CCN(CCF)C3)CC2)c2ccncc2n1` [Example 219, 4-(2-(2-fluoroethyl)-2,8-diazaspiro[4.5]decan-8-yl)-2-(3-methyl-1H-pyrazol-4-yl)pyrido[3,4-d]pyrimidine]: the response in assay [1] was half-maximal at 460 nM (EC50). Further, in assay [2], the Ki was 0.067 nM.

Regarding `Cc1[nH]ncc1-c1nc(N2CCC3(CCN(CC(F)F)C3)CC2)c2ccncc2n1` [Example 220, 4-(2-(2,2-difluoroethyl)-2,8-diazaspiro[4.5]decan-8-yl)-2-(3-methyl-1H-pyrazol-4-yl)pyrido[3,4-d]pyrimidine], in assay [1], the half-maximal effective concentration (EC50) came to 660 nM. Also, the affinity in assay [2], expressed as Ki, was 0.074 nM.

Regarding `FC1(F)CNCC12CCN(c1nc(-c3ccncc3)nc3cnccc13)CC2` [Example 223, 4-(4,4-difluoro-2,8-diazaspiro[4.5]decan-8-yl)-2-(pyridin-4-yl)pyrido[3,4-d]pyrimidine], the EC50 in assay [1] was over 10000 nM. Moreover, the Ki in assay [2] worked out at 2.7 nM.

In turn, `CS(=O)(=O)NCC1CC2(CCN(c3nc(-c4ccncc4)nc4cnccc34)CC2)CN1` (stereo not shown) [Example 224, N-((8-(2-(pyridin-4-yl)pyrido[3,4-d]pyrimidin-4-yl)-2,8-diazaspiro[4.5]decan-3-yl)methyl)methanesulfonamide] had an EC50 in assay [1] of 8900 nM. For the same compound, the Ki in assay [2] is 0.16 nM.

Regarding `Brc1cncc2nc(-c3ccncc3)nc(N3CCC4(CCNC4)CC3)c12` [Example 225, 5-Bromo-2-(pyridin-4-yl)-4-(2,8-diazaspiro[4.5]decan-8-yl)pyrido[3,4-d]pyrimidine], in assay [1], the EC50 is 1800 nM. Besides, in assay [2], the inhibition constant Ki amounted to 2.1 nM.

In turn, `Cc1n[nH]cc1-c1nc(N2CCC3(CCN(C)C3)CC2)c2cc(Cc3ccccc3)ncc2n1` [Example 226, 6-benzyl-2-(3-methyl-1H-pyrazol-4-yl)-4-(2-methyl-2,8-diazaspiro[4.5]decan-8-yl)pyrido[3,4-d]pyrimidine] registered an EC50 in assay [1] of 130 nM. In addition, the affinity in assay [2], expressed as Ki, was 0.016 nM.

For `Cc1n[nH]cc1-c1nc(N2CCC3(CCN(C)C3)CC2)c2cc(Cc3cccnc3)ncc2n1` [Example 227, 2-(3-methyl-1H-pyrazol-4-yl)-4-(2-methyl-2,8-diazaspiro[4.5]decan-8-yl)-6-(pyridin-3-ylmethyl)pyrido[3,4-d]pyrimidine], in assay [1], the EC50 is 2300 nM. This compound also returned an inhibition constant (Ki) in assay [2] of 0.086 nM.

`Cc1n[nH]cc1-c1nc(N2CCC3(CCNC3)CC2)c2ccnc(Cl)c2n1` [Example 232, 8-chloro-2-(3-methyl-1H-pyrazol-4-yl)-4-(2,8-diazaspiro[4.5]decan-8-yl)pyrido[3,4-d]pyrimidine]: in assay [1], the EC50 amounted to 4300 nM. This compound yielded an inhibition constant Ki in assay [2] of 0.061 nM.

As to `COc1cncc2nc(-c3ccncc3)nc(N3CCC4(CCNC4)CC3)c12` [Example 233, 5-Methoxy-2-(pyridin-4-yl)-4-(2,8-diazaspiro[4.5]decan-8-yl)pyrido[3,4-d]pyrimidine], the EC50 in assay [1] is 260 nM. Besides, the affinity in assay [2], expressed as Ki, was 0.028 nM.

As for `F[C@@H]1CNCC12CCN(c1nc(-c3ccncc3)nc3cnccc13)CC2` [Example 234, (S)-4-(4-fluoro-2,8-diazaspiro[4.5]decan-8-yl)-2-(pyridin-4-yl)pyrido[3,4-d]pyrimidine], the concentration giving a half-maximal response (EC50) in assay [1] was found to be 4200 nM. In assay [2], this compound had an inhibition constant Ki of 4.5 nM.

In assay [1], `F[C@H]1CNCC12CCN(c1nc(-c3ccncc3)nc3cnccc13)CC2` [Example 235, (R)-4-(4-fluoro-2,8-diazaspiro[4.5]decan-8-yl)-2-(pyridin-4-yl)pyrido[3,4-d]pyrimidine] came in with a concentration giving a half-maximal response (EC50) of 1800 nM. This compound returned an inhibition constant Ki in assay [2] of 1.3 nM.

In assay [1], `Cc1n[nH]cc1-c1nc(N2CCC3(CCN(C)C3)CC2)c2cc(Cc3ccncc3)ncc2n1` [Example 236, 2-(3-methyl-1H-pyrazol-4-yl)-4-(2-methyl-2,8-diazaspiro[4.5]decan-8-yl)-6-(pyridin-4-ylmethyl)pyrido[3,4-d]pyrimidine] showed a concentration giving a half-maximal response (EC50) of 1200 nM. In assay [2], this compound gave an inhibition constant (Ki) of 0.49 nM.

`Cc1n[nH]cc1-c1nc(N2CCC3(CCN(C)C3)CC2)c2cc(Cc3ccccn3)ncc2n1` [Example 238, 2-(3-methyl-1H-pyrazol-4-yl)-4-(2-methyl-2,8-diazaspiro[4.5]decan-8-yl)-6-(pyridin-2-ylmethyl)pyrido[3,4-d]pyrimidine] showed a concentration giving a half-maximal response (EC50) in assay [1] of 2300 nM. For the same compound, in assay [2], the Ki was 0.25 nM.

In the case of `OCc1cncc2nc(-c3ccncc3)nc(N3CCC4(CCNC4)CC3)c12` [Example 239, (2-(Pyridin-4-yl)-4-(2,8-diazaspiro[4.5]decan-8-yl)pyrido[3,4-d]pyrimidin-5-yl)methanol], the 50% effective concentration (EC50) in assay [1] was over 10000 nM. In assay [2], this compound came in with a Ki of 4.9 nM.

On to `CC(C)c1cncc2nc(-c3ccncc3)nc(N3CCC4(CCNC4)CC3)c12` [Example 240, 5-Isopropyl-2-(pyridin-4-yl)-4-(2,8-diazaspiro[4.5]decan-8-yl)pyrido[3,4-d]pyrimidine], for which, in assay [1], a half-maximal response (EC50) required 3200 nM. For the same compound, the Ki in assay [2] is 2 nM.

These data come from US20240174696A1, “2,8-DIAZASPIRO[4.5]DECANE COMPOUNDS” (Genentech, Inc., priority 2021, published 2024).
